Data taken from patent US6500826B1, “Use of panaverium bromide for preventing cell proliferation and diseases caused thereby in the liver and digestive tract” (Solvay Pharma, priority 1996, dated 2002).

Assays:
Format in all cases: cell-based
[1] = system: HT29 colon cancer cell line; test: Inhibition of proliferation of HT29 colon cancer cells, tritiated thymidine incorporation; settings: Homo sapiens, HT-29, 15 h, read-out: % Inhibition of cell proliferation (3HThdR incorporation)
Description: The HT29 colon cancer cell line employed (originally isolated from an adenocarcinoma of the human colon) was obtained from the ATCC (American Type Culture Collection).
The cells are cultured at the rate of 10^4 or 5×10^4 cells in a well containing 200 μl of culture medium composed of RPMI […] supplemented with 10% fetal calf serum, 2 mM of L-glutamine and 25 μM gentamicin.

[2] = system: LFC rat hepatocarcinoma cells; test: Inhibition of proliferation of LFC hepatocarcinoma cells, tritiated thymidine incorporation; settings: concentrations of 0.1% and 1% by weight
Description: LFC rat hepatocarcinoma cells (VPR42, Villejuif) are cultured at the rate of 10^4 or 5×10^4 cells in a well containing 200 μl of culture medium.
Inhibition of cell proliferation is assessed using tritiated thymidine as described in Test 1. The assessment is made in comparison with the reference product, which is verapamil.

[3] = system: STC-1 mouse intestinal cancer cell lines; test: Growth of STC-1 carcinoid intestinal cells, cell counting or MUH fluorescence; settings: STC-1, read-out: ED50 (cell growth)
Description: The STC-1 mouse intestinal cancer cell lines are cultured in a DMEM medium which contains 15% horse serum and 2.5% FCS. The products to be studied are added to the culture and cell growth is assessed by counting cells or, more frequently, by a fluorescence technique which is based on the cellular enzymic hydrolysis of the fluorogenic substrate 4-methylumbelliferyl heptanoate (MUH); thus, viable cells which are incubated with MUH generate a fluorescent signal which is proportional to their number and which is determined using a “Titentec Fluoroscan II” (Flow Laboratory), with the value being given in arbitrary fluorescence units.

[4] = system: BON human pancreatic carcinoid cell lines; test: Inhibition of growth of BON pancreatic carcinoid cells, MUH fluorescence; settings: 192 h, read-out: ED50 (inhibition of cell growth)
Description: The BON human pancreatic carcinoid cell lines are cultured in a DMEM/F12K (1/1) medium to which 10% FCS is added.

Q: Which results are given for `COc1ccc(CCN(C)CCCC(C#N)(c2ccc(OC)c(OC)c2)C(C)C)cc1OC` (stereo not drawn) [verapamil]?
A: inhibition at 0.025 % strength [1]: 17%; inhibition at 0.05 % strength [1]: 17%; inhibition at 0.1 % strength [1]: 27%; percentage inhibition of proliferation [2]: 72%; EC50 [3]: 13 µM; EC50 [4]: 43.6 µM
